The target in one data set is benzodiazepine receptors. The data set is described as follows: radio receptor assay using receptors extracted from brains of rats and 3H-diazepam. The data set is classed as binding. The settings on record: receptors extracted from rat brains.
The next data set concerns tonic convulsion. The data set is described as follows: antipentylenetetrazole test indicating anticonvulsive activities. The settings on record: Mus musculus; oral, 60 min before s.c. pentylenetetrazole 125 mg/kg; mortality observed for 2 h; DS male mice. The data set is classed as in vivo. The protocol:
In determination of the antipentylenetetrazole activity, four test lots consisting of 4×10 DS male mice were employed. Within 15 minutes after single subcutaneous injection of 125 mg/kg (body weight of mouse) of pentylenetetrazole (a kind of convulsion reagent given as an aqueous solution), the mice were attacked by tonic convulsion which killed them. Test compound was orally administered 60 minutes before said s.c. injection. Observation was made for two hours postinjection of pentylenetetrazole. Anticonvulsant activity was determined in mortality percentage between 100% (all the mice dead) and 0% (all the mice alive). Test results are shown by preventive ED50 value (Effective Doses in mg/kg, a theoretical level of 50% alive and 50% dead)[Goodman, et al.: J. Pharmacol., 108, 168 (1953)].

The next data set is described as follows: acute toxicity. The settings on record: mouse, in vivo; oral; DS infant male mice, 20 to 23 g; observed 72 hours; Bliss method. The protocol: Test compounds were orally administered to DS infant male mice with four toxic doses. For each dose 10 mice were used, their body weights ranging from 20 to 23 grams. […] Mortality was calculated by the Bliss method [Bliss: Ann. Appln. Biol., 23, 134-307 (1935); Quant. J. Pharmacol., 11, 192 (1938)].

Where only a bound is given, the exact number is not on record here.

As usually defined, the Ki is the equilibrium dissociation constant of an inhibitor or competing ligand from its target. Read a low Ki as a stronger hold on the target. For `OCc1nnc2n1-c1ccc(Cl)cc1C(c1ccccc1Cl)OC2` (stereo not drawn) [1-Hydroxymethyl-6-(2-chlorophenyl)-8-chloro-4H,6H-(1,2,4)triazolo[4,3-a][4,1]benzoxazepine], the Ki on benzodiazepine receptors is 3.45 nM.

The ED50 is the dose that gives a 50% effect, or the effect in half of the subjects. The term LD50 denotes the dose at which mortality reaches 50%. A lower LD50 goes with a more toxic substance. As for `Clc1ccc2c(c1)C(c1ccccc1Cl)OCc1nncn1-2` (stereo not drawn) [Compound 1], in the data set on tonic convulsion, the median effective dose (ED50) was 1.25 mg/kg. The same molecule came in with an LD50 at 72 h in “acute toxicity” above 1000 mg/kg.

Take `Clc1ccc2c(c1)C(c1ccccc1Cl)OCc1nnc(N3CCOCC3)n1-2` (stereo not drawn) [Compound 2]: it took a dose of 4.26 mg/kg to reach the 50% effect level with tonic convulsion (ED50). Also, the LD50 at 72 h in “acute toxicity” was above 1000 mg/kg.

`COCc1nnc2n1-c1ccc(Cl)cc1C(c1ccccc1Cl)OC2` (stereo not drawn) [Compound 3]: it took a dose of 2.38 mg/kg to reach the 50% effect level in the data set on tonic convulsion (ED50). In the data set “acute toxicity”, this molecule registered a median lethal dose (LD50) at 72 h above 1000 mg/kg.

The molecule `CC(=O)OCc1nnc2n1-c1ccc(Cl)cc1C(c1ccccc1Cl)OC2` (stereo not drawn) [Compound 4] registered an ED50 with tonic convulsion of 1.2 mg/kg. This molecule also had an LD50 at 72 h in the data set “acute toxicity” above 1000 mg/kg.

As to `Clc1ccc2c(c1)C(c1ccccc1Cl)OCc1nnc(CN3CCOCC3)n1-2` (stereo not drawn) [Compound 5], the ED50 in the data set with tonic convulsion stood at 3.81 mg/kg. In “acute toxicity”, this molecule displayed an LD50 at 72 h above 1000 mg/kg.

Consider `OCc1nnc2n1-c1ccc(Cl)cc1C(c1ccccc1Cl)OC2` (stereo not drawn) [Compound 6], for which the ED50 in the data set with tonic convulsion was 3.25 mg/kg. The same molecule registered an LD50 at 72 h in the data set “acute toxicity” above 1000 mg/kg.

On to `CCOCc1nnc2n1-c1ccc(Cl)cc1C(c1ccccc1Cl)OC2` (stereo not drawn) [Compound 7], for which, in the data set with tonic convulsion, the 50% effect level (ED50) was put at a dose of 2.13 mg/kg. The LD50 at 72 h in the data set “acute toxicity” was above 1000 mg/kg.

Regarding `CN(C)Cc1nnc2n1-c1ccc(Cl)cc1C(c1ccccc1Cl)OC2` (stereo not drawn) [Compound 8], the 50% effective dose (ED50) in the data set with tonic convulsion was 1.02 mg/kg. For the same molecule, the 50% lethal dose (LD50) at 72 h in “acute toxicity” is above 1000 mg/kg.

`Clc1ccc2c(c1)C(c1ccccc1Cl)OCc1nnc(CN3CCCC3)n1-2` (stereo not drawn) [Compound 9] displayed a median effective dose (ED50) in the data set on tonic convulsion of 4.63 mg/kg. This molecule showed a 50% lethal dose (LD50) at 72 h in “acute toxicity” above 1000 mg/kg.

In the case of `CC(C)OCc1nnc2n1-c1ccc(Cl)cc1C(c1ccccc1Cl)OC2` (stereo not drawn) [Compound 10], the 50% effect level with tonic convulsion (ED50) was put at a dose of 2.42 mg/kg. The 50% lethal dose (LD50) at 72 h in the data set “acute toxicity” is above 1000 mg/kg.

On to `CCCOCc1nnc2n1-c1ccc(Cl)cc1C(c1ccccc1Cl)OC2` (stereo not drawn) [Compound 11], for which the ED50 with tonic convulsion came to 3.09 mg/kg. The 50% lethal dose (LD50) at 72 h in the data set “acute toxicity” was above 1000 mg/kg.

Take `Cn1nc2n(c1=O)-c1ccc(Cl)cc1C(c1ccccc1Cl)OC2` (stereo not drawn) [Compound 12]: it took a dose of 3.46 mg/kg to reach the 50% effect level in the data set with tonic convulsion (ED50). In the data set “acute toxicity”, this molecule yielded a 50% lethal dose (LD50) at 72 h above 1000 mg/kg.

In the case of `Cc1nnc2n1-c1ccc(Cl)cc1C(c1ccccc1Cl)OC2C` (stereo not drawn) [Compound 13], in the data set on tonic convulsion, the median effective dose (ED50) stood at 1.19 mg/kg. This molecule also had an LD50 at 72 h in “acute toxicity” above 1000 mg/kg.

On to `CC(=O)OCCc1nnc2n1-c1ccc(Cl)cc1C(c1ccccc1Cl)OC2C` (stereo not drawn) [Compound 14], for which, in the data set with tonic convulsion, the 50% effect level (ED50) was put at a dose of 1.67 mg/kg. In addition, the LD50 at 72 h in the data set “acute toxicity” was above 1000 mg/kg.

For `Cc1nnc2n1-c1ccc(Cl)cc1C(c1ccccc1C(F)(F)F)OC2` (stereo not drawn) [Compound 15], it took a dose of 1.41 mg/kg to reach the 50% effect level with tonic convulsion (ED50). Moreover, in “acute toxicity”, the median lethal dose (LD50) at 72 h is above 1000 mg/kg.

In turn, `CN1C(=O)CN=C(c2ccccc2)c2cc(Cl)ccc21` [Diazepam, reference compound] had an ED50 in the data set on tonic convulsion of 1.2 mg/kg.

`CN1CCN=C(c2ccccc2)c2cc(Cl)ccc21` [Medazepam, reference compound] yielded an LD50 at 72 h in the data set “acute toxicity” above 1000 mg/kg.

Source of the values: patent US4476133A, “Triazolo-4,1-benzoxazepines having CNS activity” (Shionogi & Co., Ltd., priority 1980, dated 1984).
